# The NIST ThermoML archive (doi:10.1016/j.tca.2005.04.002)
# Numbers after ± are expanded uncertainties.
# Assay: mn = molality of the nth substance listed, in mol/kg
# Conditions: 298.15 K; 101.33 kPa; Liquid; Calvet calorimetry; m1 = 0.1
row,Compound,molar enthalpy of solution [kcal/mol]
1,NCC(=O)O [2-aminoacetic acid] + O,3.38 ± 0.0526
2,C[C@H](N)C(=O)O [(S)-2-aminopropanoic acid] + O,1.86 ± 0.0359
3,N[C@@H](CO)C(=O)O [L-serine] + O,2.69 ± 0.0454
